ChEMBL document CHEMBL1201862, “PubChem BioAssay data set” (2004)
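Each compound was tested at five concentrations against cells in 96-well plates for 48 hours. The concentration for 50% growth inhibition is given as GI50.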 Activity calls are given as the source filed them. No stated cut-off is given here; in the data, active = GI50 up to about 1.1 µM and inactive = higher.

How the values were obtained:
Assay in all cases: NCI-60 cell line screen, 48 h
786-0 = system: 786-0
A498 = system: A498
A549 = system: A549
ACHN = system: ACHN
CCRF-CEM = system: CCRF-CEM
COLO 205 = system: COLO 205
HL-60 = system: HL-60
HOP-92 = system: HOP-92
HT-29 = system: HT-29
LOX IMVI = system: LOX IMVI
M14 = system: M14
Malme-3M = system: Malme-3M
NCI-H23 = system: NCI-H23
NCI-H460 = system: NCI-H460
RXF 393 = system: RXF 393
SF-268 = system: SF-268
SK-MEL-5 = system: SK-MEL-5
SN12C = system: SN12C
UACC-257 = system: UACC-257
UACC-62 = system: UACC-62

Measured: GI50

NC(CP(=O)(O)O)C(=O)O (stereo not given)
inactive: 786-0 > 100 µM | A498 > 100 µM | A549 > 100 µM | ACHN > 100 µM | CCRF-CEM > 100 µM | COLO 205 > 100 µM | HL-60 > 100 µM | HOP-92 > 100 µM | HT-29 > 100 µM | LOX IMVI 43.6 µM | M14 > 100 µM | Malme-3M > 100 µM | NCI-H23 > 100 µM | NCI-H460 > 100 µM | RXF 393 > 100 µM | SF-268 > 100 µM | SK-MEL-5 > 100 µM | SN12C > 100 µM | UACC-257 > 100 µM | UACC-62 > 100 µM

O=C(CCc1ccc(O)cc1)NCCc1cccc(O)c1
inactive: 786-0 > 50 µM | A498 > 50 µM | A549 > 50 µM | ACHN > 50 µM | CCRF-CEM > 50 µM | COLO 205 > 50 µM | HL-60 > 50 µM | HOP-92 > 50 µM | HT-29 > 50 µM | LOX IMVI > 50 µM | M14 > 50 µM | Malme-3M > 50 µM | NCI-H23 > 50 µM | NCI-H460 > 50 µM | RXF 393 > 50 µM | SF-268 > 50 µM | SK-MEL-5 > 50 µM | SN12C > 50 µM | UACC-257 > 50 µM | UACC-62 > 50 µM
